Experimental data taken from patent US20260199483A1 (Bright Angel Therapeutics Inc., priority 2022, published 2026).
In brackets after ≈: the same amount, converted by molar mass.

Legend:
[1] = Mammalian cell toxicity (Cell Titer-Glo); assay type: cell-based; details: human; HepG2 cells, 48 h incubation, Cell Titer-Glo luminescence
Method: HepG2 cells were seeded overnight at 500 cells/well in 384-well plate, then incubated with compounds (10-point concentration titration) for 48 h. Cell Titer-Glo® reagent ([…]) was added to each well and after 10-minute incubation at room temperature the luminescent signal was measured using an Envision plate reader (Perkin Elmer).

[2] = biological target: T1, purified recombinant Yck2 (Candida albicans, UniProt A0A1D8PKB4); assay: HotSpot kinase assay; assay type: biochemical, C. albicans
T1 construct: Yck2 residues 37-345 were PCR amplified from C. albicans genomic DNA; His6 (N); TEV protease site (N); made in house; host or cells: E. coli BL21(DE3)-Gold
T1 sequence (A0A1D8PKB4 entry or part of it): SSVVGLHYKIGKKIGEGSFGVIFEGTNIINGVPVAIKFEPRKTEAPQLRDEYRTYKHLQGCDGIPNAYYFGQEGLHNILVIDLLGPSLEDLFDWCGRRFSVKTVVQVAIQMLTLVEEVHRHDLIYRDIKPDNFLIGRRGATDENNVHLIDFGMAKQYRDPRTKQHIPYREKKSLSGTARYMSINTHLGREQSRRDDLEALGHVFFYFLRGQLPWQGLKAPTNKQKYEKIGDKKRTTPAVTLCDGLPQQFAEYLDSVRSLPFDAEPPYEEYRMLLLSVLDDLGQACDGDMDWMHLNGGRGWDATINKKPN
Method: IC50s were determined using the in vitro HotSpot kinase assay (purified enzymes, ^33P-ATP, an appropriate substrate and 1 μM ATP). For enzyme inhibition assays, compounds were tested in range of ten concentrations from 10 uM to 0.0005 uM using purified recombinant Yck2. Reaction conditions were 1 uM ATP, one hour incubation with inhibitor, and kinase activity detected using 33-ATP phosphorylation of an appropriately selected peptide substrate.
Yck2 residues 37-345 were PCR amplified from C. albicans genomic DNA and subcloned into the vector pMCSG53, which codes for a N-terminal His6 tag, TEV protease site, followed by the Yck2 protein. E. coli BL21(DE3)-Gold competent cells were transformed with this plasmid and the Yck2 protein was purified using methodology previously described (Stogios et al., ACS Chem. Biol. 13, 1322-1332 (2018)).

[3] = tested on: CaCi2; assay: Antifungal sensitivity testing (broth microdilution MIC); assay type: cell-based; details: CaCi2, 96-well broth microdilution, compounds in DMSO
Method: Minimum inhibitory concentrations (MICs) were determined in flat bottom, 96-well plate format using a modified broth microdilution protocol as previously described (Singh et al., PLoS Pathog. 5, e1000532 (2009); LaFayette et al., PLoS Pathog. 6, 79-80 (2010)). Compounds were formulated in dimethyl sulfoxide (DMSO, Sigma-Aldrich Co.). Each compound was tested in duplicate in at least two independent experiments.

SMILES | IC50 at 48 h [1] [µM] | IC50 [2] [nM] | MIC50 [3] [µM]
Fc1ccc(-c2nn3cc(CNC[C@H]4CO[C@](Cn5cncn5)(c5ccc(F)cc5F)C4)ccc3c2-c2ccncc2)cc1 (stereo in doubt) [Compound I-256, 1-(trans-5-((1H-1,2,4-triazol-1-yl)methyl)-5-(2,4-difluorophenyl)tetrahydrofuran-3-yl)-N-((2-(4-fluorophenyl)-3-(pyridin-4-yl)pyrazolo[1,5-a]pyridin-6-yl)methyl)methanamine] | 11.8 |  | 
Nc1nccc(-c2c(-c3ccc(F)cc3)ncn2C2CCN(CCCC(O)(Cn3cncn3)c3ccc(F)cc3F)CC2)n1 (centres unmarked) [Compound I-58, 5-(4-(5-(2-aminopyrimidin-4-yl)-4-(4-fluorophenyl)-1H-imidazol-1-yl)piperidin-1-yl)-2-(2,4-difluorophenyl)-1-(1H-1,2,4-triazol-1-yl)pentan-2-ol] |  | 3.19 | > 25
Cn1cc(-c2ccncc2COC2CCN(CC(O)(Cn3cncn3)c3ccc(F)cc3F)CC2)c(-c2ccc(F)cc2)n1 (centres unmarked) [Compound I-90, 2-(2,4-difluorophenyl)-1-(4-((4-(3-(4-fluorophenyl)-1-methyl-1H-pyrazol-4-yl)pyridin-3-yl)methoxy)piperidin-1-yl)-3-(1H-1,2,4-triazol-1-yl)propan-2-ol] |  | 47.6 | 0.586 (≈ 0.354 µg/mL)
O=C(NC1CCN(CC(O)(Cn2cncn2)c2ccc(F)cc2F)CC1)c1ccc2c(-c3ccncc3)c(-c3ccc(F)cc3)nn2c1 (centres unmarked) [Compound I-100, N-(1-(2-(2,4-difluorophenyl)-2-hydroxy-3-(1H-1,2,4-triazol-1-yl)propyl)piperidin-4-yl)-2-(4-fluorophenyl)-3-(pyridin-4-yl)pyrazolo[1,5-a]pyridine-6-carboxamide] |  | 32.9 | 0.0651 (≈ 0.0425 µg/mL)
O=C(NC[C@](O)(Cn1cncn1)c1ccc(F)cc1F)c1ccc2c(-c3ccncc3)c(-c3ccc(F)cc3)nn2c1 [Compound I-116, (S)-N-(2-(2,4-difluorophenyl)-2-hydroxy-3-(1H-1,2,4-triazol-1-yl)propyl)-2-(4-fluorophenyl)-3-(pyridin-4-yl)pyrazolo[1,5-a]pyridine-6-carboxamide] |  | 7.91 | 6.25 (≈ 3.56 µg/mL)
O=C(NC[C@@](O)(Cn1cncn1)c1ccc(F)cc1F)c1ccc2c(-c3ccncc3)c(-c3ccc(F)cc3)nn2c1 [Compound I-117, (R)-N-(2-(2,4-difluorophenyl)-2-hydroxy-3-(1H-1,2,4-triazol-1-yl)propyl)-2-(4-fluorophenyl)-3-(pyridin-4-yl)pyrazolo[1,5-a]pyridine-6-carboxamide] |  | 5.08 | 0.195 (≈ 0.111 µg/mL)
OC(COc1cccc2c(-c3ccncc3)c(-c3ccc(F)cc3)nn12)(Cn1cncn1)c1ccc(F)cc1F (centres unmarked) [Compound I-139, 2-(2,4-difluorophenyl)-1-((2-(4-fluorophenyl)-3-(pyridin-4-yl)pyrazolo[1,5-a]pyridin-7-yl)oxy)-3-(1H-1,2,4-triazol-1-yl)propan-2-ol] | > 20 |  | 
O=C(NCC1CCN(CC(O)(Cn2cncn2)c2ccc(F)cc2F)CC1)c1ccc2c(-c3ccncc3)c(-c3ccc(F)cc3)nn2c1 (centres unmarked) [Compound I-147, N-((1-(2-(2,4-difluorophenyl)-2-hydroxy-3-(1H-1,2,4-triazol-1-yl)propyl)piperidin-4-yl)methyl)-2-(4-fluorophenyl)-3-(pyridin-4-yl)pyrazolo[1,5-a]pyridine-6-carboxamide] |  | 36.8 | 0.0977 (≈ 0.0651 µg/mL)
O=C(NCCC(O)(Cn1cncn1)c1ccc(F)cc1F)c1ccc2c(-c3ccncc3)c(-c3ccc(F)cc3)nn2c1 (centres unmarked) [Compound I-148, N-(3-(2,4-difluorophenyl)-3-hydroxy-4-(1H-1,2,4-triazol-1-yl)butyl)-2-(4-fluorophenyl)-3-(pyridin-4-yl)pyrazolo[1,5-a]pyridine-6-carboxamide] |  | 1.61 | 6.25 (≈ 3.65 µg/mL)
OC(CN1CCC(Oc2cccc3c(-c4ccncc4)c(-c4ccc(F)cc4)nn23)CC1)(Cn1cncn1)c1ccc(F)cc1F (centres unmarked) [Compound I-154, 2-(2,4-difluorophenyl)-1-(4-((2-(4-fluorophenyl)-3-(pyridin-4-yl)pyrazolo[1,5-a]pyridin-7-yl)oxy)piperidin-1-yl)-3-(1H-1,2,4-triazol-1-yl)propan-2-ol] |  | 176 | 0.195 (≈ 0.122 µg/mL)
Nc1nccc(-c2c(-c3ccc(F)cc3)ncn2C2CCN(C3CCN(CC(O)(Cn4cncn4)c4ccc(F)cc4F)CC3)CC2)n1 (centres unmarked) [Compound I-224] |  | 72.3 | 25 (≈ 16.5 µg/mL)
Cn1cc(-c2ccnc3c2C(=O)N(CC2CCN(CC(O)(Cn4cncn4)c4ccc(F)cc4F)CC2)C3)c(-c2ccc(F)cc2)n1 (centres unmarked) [Compound I-230, 6-((1-(2-(2,4-difluorophenyl)-2-hydroxy-3-(1H-1,2,4-triazol-1-yl)propyl)piperidin-4-yl)methyl)-4-(3-(4-fluorophenyl)-1-methyl-1H-pyrazol-4-yl)-6,7-dihydro-5H-pyrrolo[3,4-b]pyridin-5-one] |  | 2.93 | 1.88 (≈ 1.21 µg/mL)
Nc1nccc(-c2c(-c3ccc(F)cc3)ncn2C2CCN(CCCn3c4c(c5cc(Cl)ccc53)CCNC4)CC2)n1 [Compound I-232, 4-(1-(1-(3-(6-chloro-1,2,3,4-tetrahydro-9H-pyrido[3,4-b]indol-9-yl)propyl)piperidin-4-yl)-4-(4-fluorophenyl)-1H-imidazol-5-yl)pyrimidin-2-amine] |  | 2.61 | > 25
Cn1cc(-c2ccncc2COCC[C@@](O)(Cn2cncn2)c2ccc(F)cc2F)c(-c2ccc(F)cc2)n1 [Compound I-236, (S)-2-(2,4-difluorophenyl)-4-((4-(3-(4-fluorophenyl)-1-methyl-1H-pyrazol-4-yl)pyridin-3-yl)methoxy)-1-(1H-1,2,4-triazol-1-yl)butan-2-ol] |  | 169 | 2.34 (≈ 1.25 µg/mL)
Cn1cc(-c2ccnc3c2C(=O)N(CC2CCN(C[C@](O)(Cn4cncn4)c4ccc(F)cc4F)CC2)C3)c(-c2ccc(F)cc2)n1 [Compound I-238, (S)-6-((1-(2-(2,4-difluorophenyl)-2-hydroxy-3-(1H-1,2,4-triazol-1-yl)propyl)piperidin-4-yl)methyl)-4-(3-(4-fluorophenyl)-1-methyl-1H-pyrazol-4-yl)-6,7-dihydro-5H-pyrrolo[3,4-b]pyridin-5-one] |  | 7.84 | 0.781 (≈ 0.502 µg/mL)
Cn1cc(-c2ccncc2COC(=O)NC2CCN(CC(O)(Cn3cncn3)c3ccc(F)cc3F)CC2)c(-c2ccc(F)cc2)n1 (centres unmarked) [Compound I-244, (4-(3-(4-fluorophenyl)-1-methyl-1H-pyrazol-4-yl)pyridin-3-yl)methyl (1-(2-(2,4-difluorophenyl)-2-hydroxy-3-(1H-1,2,4-triazol-1-yl)propyl)piperidin-4-yl)carbamate] | 18.4 |  | 
Cn1cc(-c2ccnc3c2C(=O)N(CC2CCN(CC(=O)OC(Cn4cncn4)(Cn4cncn4)c4ccc(F)cc4F)CC2)C3)c(-c2ccc(F)cc2)n1 [Compound I-249, 2-(2,4-difluorophenyl)-1,3-di(1H-1,2,4-triazol-1-yl)propan-2-yl 2-(4-((4-(3-(4-fluorophenyl)-1-methyl-1H-pyrazol-4-yl)-5-oxo-5,7-dihydro-6H-pyrrolo[3,4-b]pyridin-6-yl)methyl)piperidin-1-yl)acetate] | > 50 |  | 
Cn1cc(-c2ccnc3c2C(=O)N(CCC2CCN(CC(O)(Cn4ccnn4)c4ccc(F)cc4F)CC2)C3)c(-c2ccc(F)cc2)n1 (centres unmarked) [Compound I-250] | > 50 |  | 
O[C@@](CNCc1ccc2c(-c3ccncc3)c(-c3ccc(F)cc3)nn2c1)(Cn1cncn1)c1ccc(F)cc1F [Compound I-253, (S)-2-(2,4-difluorophenyl)-1-(((2-(4-fluorophenyl)-3-(pyridin-4-yl)pyrazolo[1,5-a]pyridin-6-yl)methyl)amino)-3-(1H-1,2,4-triazol-1-yl)propan-2-ol] |  | 5.95 | 0.137 (≈ 0.0761 µg/mL)
OC(Cn1cncn1)(c1ccc(F)cc1F)C(F)(F)c1ccc(C#Cc2ccc(CNCc3ccc4c(-c5ccncc5)c(-c5ccc(F)cc5)nn4c3)cc2)cn1 (centres unmarked) [Compound I-267, 2-(2,4-difluorophenyl)-1,1-difluoro-1-(5-((4-((((2-(4-fluorophenyl)-3-(pyridin-4-yl)pyrazolo[1,5-a]pyridin-6-yl)methyl)amino)methyl)phenyl)ethynyl)pyridin-2-yl)-3-(1H-1,2,4-triazol-1-yl)propan-2-ol] | 8.03 |  | 
OC(Cn1cnnn1)(c1ccc(F)cc1F)C(F)(F)c1ccc(-c2ccc(CNCc3ccc4c(-c5ccncc5)c(-c5ccc(F)cc5)nn4c3)cc2)cn1 (centres unmarked) [Compound I-269, 2-(2,4-difluorophenyl)-1,1-difluoro-1-(5-(4-((((2-(4-fluorophenyl)-3-(pyridin-4-yl)pyrazolo[1,5-a]pyridin-6-yl)methyl)amino)methyl)phenyl)pyridin-2-yl)-3-(1H-tetrazol-1-yl)propan-2-ol] | 3.67 |  | 
